Holding throughout (type): in vivo
One experiment deals with stress-induced ulcers. Nature of the experiment: inhibition of stress-induced ulcers in rats (restraint in a water bath at 25° for 40 minutes). Conditions: 50 mg/kg i.v.
Experiment [1] deals with bronchoconstrictive effect of 5-HT. Nature of the experiment: antagonism of the bronchoconstrictive effect of 5-HT in rats. Conditions: 3 mg/kg i.v.
Experiment [2] relates to bronchoconstrictive effect of compound 48/80 (histamine releasing drug). Nature of the experiment: antagonism of the bronchoconstrictive effect of compound 48/80 in rats. Conditions: 3 mg/kg i.v.
Experiment [3] has as its system airway resistance and pulmonary compliance. Nature of the experiment: airway resistance and pulmonary compliance in rats (technique of Palecek et al.). The conditions noted are these: dosage as low as 3 mg/kg i.v. An excerpt: In addition to anti-allergic activity, the compounds of this invention are effective in decreasing the airway resistance and in increasing pulmonary compliance, and can be therefore used for the treatment of respiratory insufficiency, such as, for example, acute pulmonary insufficiency, as shown by the results obtained in rats using the technique described by Palecek F., Palecekova M., and Aviado D. M. (Arch. Environ. Health, 1967, 15:332-342).

Experiment [4] deals with passive cutaneous anaphylaxis (PCA). Nature of the experiment: passive cutaneous anaphylaxis (PCA) test in rats, oral. Conditions: Rattus norvegicus, 50 mg/kg p.o., read-out: % Inhibition In Comparison With Controls. An excerpt: They can be therefore used in prevention and treatment of bronchial asthma, allergic rhinitis, hay fever, urticaria and dermatosis.

Read-outs that look alike come from different tables or passages of the source.

Take `CC(C)Oc1ccccc1-c1cc(=O)c2cc(C(=O)[O-])ccc2o1.[Na+]` [6-carboxy-2'-isopropoxy-flavone sodium salt]: the “inhibition of the stress-induced ulcers” value in the experiment with stress-induced ulcers is recorded as 45%.
For the compound `CC(C)Oc1ccccc1-c1cc(=O)c2cc(C(=O)O)ccc2o1` [6-carboxy-2'-isopropoxy-flavone], the “antagonizing the bronchoconstrictive effect of 5-HT” value in experiment [1] was determined as 50%. Moreover, the “antagonizing the bronchoconstrictive effect of compound 48/80” value in experiment [2] is on record as 50%. Also, the “effect on airway resistance” value in experiment [3] is recorded as “lower the airway resistance”. Further, in experiment [3], the “effect on pulmonary compliance” value is listed as “increase pulmonary compliance”. Besides, the inhibition in vivo at 50 mg/kg in experiment [4] (0.25 h, 15 min. pretreatment) turned out to be 82.9%; in experiment [4] (0.5 h, 30 min. pretreatment), 39.5%; in experiment [4] (1 h, 60 min. pretreatment), 27.6%; in experiment [4] (2 h, 120 min. pretreatment) it was 24.4%.
With `O=C(O)c1ccc2oc(-c3cnccn3)cc(=O)c2c1` [6-carboxy-2-(2'-pyrazinyl)-chromone], the inhibition in vivo at 50 mg/kg in experiment [4] (0.25 h, 15 min. pretreatment) is 87%; in experiment [4] (0.5 h, 30 min. pretreatment), 47.3%; in experiment [4] (1 h, 60 min. pretreatment), 31.9%; in experiment [4] (2 h, 120 min. pretreatment) it was 26.3%.
For `O=C(O)c1ccc2oc(C=Cc3ccccc3)cc(=O)c2c1` [6-carboxy-2-(β-phenyl-vinyl)-chromone], in that order: 69.9%, 45.8%, 19.6% and 16.6%.
For `O=C(O)c1ccc2oc(-c3cccc(Cl)c3)cc(=O)c2c1` [6-carboxy-3'-chloro-flavone], in that order: 31%, 22.3%, 5.9% and 2.1%.
On the same counts, the results for `O=C(O)c1ccc2oc(-c3ccc(O)cc3)cc(=O)c2c1` [6-carboxy-4'-hydroxy-flavone] are 9.2%, 4%, 3.7% and 3.9%.
For the compound `O=C(O)c1ccc2oc(-c3ccccc3)cc(=O)c2c1` [6-carboxy-flavone], the inhibition in vivo at 50 mg/kg came to 32.1% in experiment [4] (0.25 h, 15 min. pretreatment); 23.5% in experiment [4] (0.5 h, 30 min. pretreatment); 6.8% in experiment [4] (1 h, 60 min. pretreatment); 3.4% in experiment [4] (2 h, 120 min. pretreatment).
As for `O=C(O)c1ccc2oc3ccc(OCCO)cc3c(=O)c2c1` [AH 7725, 2-carboxy-7-hydroxyethoxy-xanthone], the inhibition in vivo at 50 mg/kg turned out to be 42.6% in experiment [4] (0.25 h, 15 min. pretreatment); 14.4% in experiment [4] (0.5 h, 30 min. pretreatment); 13.3% in experiment [4] (1 h, 60 min. pretreatment); 3.8% in experiment [4] (2 h, 120 min. pretreatment).
For `O=C(O)c1cc(=O)c2c(OCC(O)COc3cccc4oc(C(=O)O)cc(=O)c34)cccc2o1` [DSCG, disodium cromoglycate], in that order: 6%, 5.5%, 3.2% and 2.5%.
